PubChem BioAssay AID248 (DTP/NCI, 2004)
Values joined by “and” are separate entries in the source; they are usually repeats but may differ in a detail not shown here. Equal entries are not always repeated. Inconclusive results and toxic doses are left out. Rule as the data show it: active = T/C of 150% or more; inactive = T/C below 125%.

System: L1210 leukemia ip in BDF1 mice, survival T/C
Experiment: NCI In Vivo Anticancer Drug Screen. Data for tumor model L1210 Leukemia (intraperitoneal) in B6D2F1 (BDF1) mice
Settings: endpoint: mean survival time, higher = longer survival
Summary of the method: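 Survival endpoint. Drug-treated group vs vehicle group, expressed as T divided by C. Tumor passaged by transplantation.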

[1] = dose: 100.0 mg/kg/injection, schedule: Q01DX009 (ip), vehicle: saline with Tween-80
[2] = dose: 200.0 mg/kg/injection, schedule: Q01DX009 (ip), vehicle: saline with Tween-80
[3] = dose: 400.0 mg/kg/injection, schedule: Q01DX009 (ip), vehicle: saline with Tween-80
[4] = dose: 100.0 mg/kg/injection, schedule: Q04DX003 (ip), vehicle: Klucel (hydroxypropylcellulose) (HPC)
[5] = dose: 200.0 mg/kg/injection, schedule: Q01DX001 (ip), vehicle: carboxymethylcellulose (CMC)
[6] = dose: 200.0 mg/kg/injection, schedule: Q04DX003 (ip), vehicle: Klucel (hydroxypropylcellulose) (HPC)
[7] = dose: 400.0 mg/kg/injection, schedule: Q01DX001 (ip), vehicle: carboxymethylcellulose (CMC)
[8] = dose: 400.0 mg/kg/injection, schedule: Q04DX003 (ip), vehicle: Klucel (hydroxypropylcellulose) (HPC)
[9] = dose: 100.0 mg/kg/injection, schedule: Q04DX003 (ip), vehicle: saline
[10] = dose: 200.0 mg/kg/injection, schedule: Q04DX003 (ip), vehicle: saline
[11] = dose: 100.0 mg/kg/injection, schedule: Q04DX002 (ip), vehicle: Klucel (hydroxypropylcellulose) (HPC)
[12] = dose: 200.0 mg/kg/injection, schedule: Q04DX002 (ip), vehicle: Klucel (hydroxypropylcellulose) (HPC)
[13] = dose: 400.0 mg/kg/injection, schedule: Q04DX002 (ip), vehicle: Klucel (hydroxypropylcellulose) (HPC)
[14] = dose: 100.0 mg/kg/injection, schedule: Q01DX001 (ip), vehicle: saline
[15] = dose: 200.0 mg/kg/injection, schedule: Q01DX001 (ip), vehicle: saline
[16] = dose: 400.0 mg/kg/injection, schedule: Q01DX001 (ip), vehicle: saline
[17] = dose: 100.0 mg/kg/injection, schedule: Q04DX003 (ip), vehicle: saline with Tween-80
[18] = dose: 200.0 mg/kg/injection, schedule: Q04DX003 (ip), vehicle: saline with Tween-80
[19] = dose: 400.0 mg/kg/injection, schedule: Q04DX003 (ip), vehicle: saline with Tween-80
[20] = dose: 100.0 mg/kg/injection, schedule: Q01DX009 (ip), vehicle: Klucel (hydroxypropylcellulose) (HPC)
[21] = dose: 200.0 mg/kg/injection, schedule: Q01DX009 (ip), vehicle: Klucel (hydroxypropylcellulose) (HPC)

Measured: T/C

O=C(O)C(Cl)(Br)C(Cl)c1ccccc1 (stereo not drawn)
inactive: [1] 93 % of control | [2] 91 % of control | [3] 95 % of control

O=C1CCC/C1=C/c1ccccc1
inactive: dose: 100.0 mg/kg/injection, schedule: Q01DX001 (ip), vehicle: carboxymethylcellulose (CMC) 97 % of control | [4] 93 % of control | [5] 91 % of control | [6] 95 % of control | [7] 91 % of control | [8] 88 % of control

CSC(N)=Nc1cccc2c1CCCC2
inactive: dose: 50.0 mg/kg/injection, schedule: Q01DX009 (ip), vehicle: saline 98 % of control | dose: 50.0 mg/kg/injection, schedule: Q04DX003 (ip), vehicle: saline 102 % of control | dose: 100.0 mg/kg/injection, schedule: Q01DX009 (ip), vehicle: saline 98 % of control | [9] 88 % of control | [10] 92 % of control

O=C(/C=N/O)Nc1ccc([N+](=O)[O-])cc1
inactive: [11] 92 % of control | [12] 100 % of control | [13] 92 % of control

O=C(NNc1nc(-c2ccccc2)nc(-c2ccccc2)n1)c1ccccc1
inactive: [14] 95 % of control | [15] 96 % of control | [16] 89 % of control

NC(=O)CCCCCCCCC(N)=O
inactive: [14] 98 % of control | [15] 98 % of control | [16] 92 % of control

CC(C)C(=O)OCP(=O)(COC(=O)C(C)C)COC(=O)C(C)C
inactive: [17] 92 % of control | [18] 97 % of control | [19] 93 % of control

Cc1c(C(=O)NN)sc2ccccc12
inactive: dose: 5.0 mg/kg/injection, schedule: Q01DX001 (ip), vehicle: saline 100 % of control | dose: 10.0 mg/kg/injection, schedule: Q01DX001 (ip), vehicle: saline 97 % of control | dose: 20.0 mg/kg/injection, schedule: Q01DX001 (ip), vehicle: saline 100 % of control | dose: 40.0 mg/kg/injection, schedule: Q01DX001 (ip), vehicle: saline 97 % of control | dose: 80.0 mg/kg/injection, schedule: Q01DX001 (ip), vehicle: saline 94 % of control

CC(=O)OCC1=C(COC(C)=O)C2OC1C1OC(=O)OC21 (stereo not drawn)
inactive: dose: 75.0 mg/kg/injection, schedule: Q01DX009 (ip), vehicle: Klucel (hydroxypropylcellulose) (HPC) 97 % of control | [20] 105 % of control | dose: 150.0 mg/kg/injection, schedule: Q01DX009 (ip), vehicle: Klucel (hydroxypropylcellulose) (HPC) 92 % of control | [21] 97 % of control | dose: 300.0 mg/kg/injection, schedule: Q01DX009 (ip), vehicle: Klucel (hydroxypropylcellulose) (HPC) 104 % of control | dose: 400.0 mg/kg/injection, schedule: Q01DX009 (ip), vehicle: Klucel (hydroxypropylcellulose) (HPC) 101 % of control

COc1ccc(OC)c(C2(O)C=C(C)C(=O)C=C2C)c1 (stereo not drawn)
inactive: dose: 150.0 mg/kg/injection, schedule: Q01DX001 (ip), vehicle: Klucel (hydroxypropylcellulose) (HPC) 91 % of control | dose: 300.0 mg/kg/injection, schedule: Q01DX001 (ip), vehicle: Klucel (hydroxypropylcellulose) (HPC) 91 % of control

Cc1ccc(S(=O)(=O)NC(=O)OC/C=C/c2ccccc2)cc1
inactive: dose: 100.0 mg/kg/injection, schedule: Q01DX009 (ip), vehicle: alcohol 96 % of control | dose: 200.0 mg/kg/injection, schedule: Q01DX009 (ip), vehicle: alcohol 94 % of control | dose: 400.0 mg/kg/injection, schedule: Q01DX009 (ip), vehicle: alcohol 110 % of control

O=C1C=CC2(CCC23C=CC(=O)O3)O1 (stereo not drawn)
inactive: dose: 13.0 mg/kg/injection, schedule: Q01DX Z (ip), vehicle: saline 96 % of control | dose: 20.0 mg/kg/injection, schedule: Q01DX Z (ip), vehicle: saline 102 % of control | dose: 30.0 mg/kg/injection, schedule: Q01DX Z (ip), vehicle: saline 104 % of control | dose: 45.0 mg/kg/injection, schedule: Q01DX Z (ip), vehicle: saline 102 % of control and 109 % of control

OC1CSCCc2ccccc21 (stereo not drawn)
inactive: dose: 100.0 mg/kg/injection, schedule: Q01DX001 (ip), vehicle: other 100 % of control | dose: 200.0 mg/kg/injection, schedule: Q01DX001 (ip), vehicle: other 98 % of control | dose: 400.0 mg/kg/injection, schedule: Q01DX001 (ip), vehicle: other 114 % of control

Clc1c(Cl)c(Cl)c(C(c2c(Cl)c(Cl)c(Cl)c(Cl)c2Cl)c2c(Cl)c(Cl)c(Cl)c(Cl)c2Cl)c(Cl)c1Cl
inactive: [1] 97 % of control | [2] 93 % of control | [3] 89 % of control

O=C(CCl)NCc1ccc([N+](=O)[O-])cc1
inactive: dose: 50.0 mg/kg/injection, schedule: Q01DX001 (ip), vehicle: Klucel (hydroxypropylcellulose) (HPC) 100 % of control | dose: 100.0 mg/kg/injection, schedule: Q01DX001 (ip), vehicle: Klucel (hydroxypropylcellulose) (HPC) 103 % of control | dose: 200.0 mg/kg/injection, schedule: Q01DX001 (ip), vehicle: Klucel (hydroxypropylcellulose) (HPC) 101 % of control

CC(C)(C)C1CCCC(=O)C1 (stereo not drawn)
inactive: dose: 50.0 mg/kg/injection, schedule: Q01DX001 (ip), vehicle: saline 101 % of control | [14] 89 % of control

CC1(C)OCC(C(OC(=O)c2ccccc2)C(OC2CCCCO2)C2COC(C)(C)O2)O1 (stereo not drawn)
inactive: [4] 94 % of control | [6] 96 % of control | [8] 94 % of control

O=S(=O)(/C=C\c1ccccc1)/C=C/c1ccccc1
inactive: dose: 25.0 mg/kg/injection, schedule: Q04DX003 (ip), vehicle: saline with Tween-80 96 % of control | dose: 50.0 mg/kg/injection, schedule: Q04DX003 (ip), vehicle: saline with Tween-80 94 % of control | [17] 92 % of control

CCOC(=O)C1C(CCCCO)CC(=O)CC1(C)C(N)=O (stereo not drawn)
inactive: [14] 97 % of control | [15] 91 % of control | [16] 95 % of control

Cc1cnc2c(=N)n(C(=O)C(F)(F)F)n(C)c2n1
inactive: [20] 104 % of control | [9] 94 % of control | [21] 102 % of control | [10] 110 % of control | dose: 400.0 mg/kg/injection, schedule: Q04DX003 (ip), vehicle: saline 95 % of control

N#CCc1ccc2[nH]c3c(c2c1)CCCC3
inactive: [11] 106 % of control | [12] 92 % of control | [13] 92 % of control

COc1ccc(-c2cnc(C(N)=O)c(=O)[nH]2)cc1
inactive: [17] 88 % of control | [18] 95 % of control | [19] 91 % of control

O=[N+]([O-])c1cc(C(F)(F)F)cc([N+](=O)[O-])c1N/N=C/c1ccccc1Cl
inactive: [1] 91 % of control | [2] 95 % of control | [3] 90 % of control

Cc1ccc(Cl)cc1NC(=O)Nc1ccccc1Cl
inactive: [20] 92 % of control | [4] 101 % of control | [21] 91 % of control | [6] 95 % of control | [8] 93 % of control

CN1N(C(O)C(Cl)(Cl)Cl)C12CCCCC2 (stereo not drawn)
inactive: [5] 101 % of control | [7] 98 % of control

CCCP(CCC)c1ccccc1
inactive: dose: 100.0 mg/kg/injection, schedule: Q01DX009 (sc), vehicle: olive oil, sesame oil, peanut oil 96 % of control | dose: 100.0 mg/kg/injection, schedule: Q04DX003 (sc), vehicle: olive oil, sesame oil, peanut oil 93 % of control | dose: 200.0 mg/kg/injection, schedule: Q01DX009 (sc), vehicle: olive oil, sesame oil, peanut oil 113 % of control | dose: 200.0 mg/kg/injection, schedule: Q04DX003 (sc), vehicle: olive oil, sesame oil, peanut oil 95 % of control | dose: 400.0 mg/kg/injection, schedule: Q01DX009 (sc), vehicle: olive oil, sesame oil, peanut oil 100 % of control | dose: 400.0 mg/kg/injection, schedule: Q04DX003 (sc), vehicle: olive oil, sesame oil, peanut oil 91 % of control
